For 13 compounds, T/C results are on record in PubChem BioAssay AID200 (DTP/NCI, 2004).

Structures are written as SMILES. Several values for one entry are separate records, joined by “and”; a condition that tells them apart may be missing. Equal values may be shown once. Toxic doses and inconclusive results are not listed. Where a SMILES comes first, the peptide text is derived from it.

The experiment concerns B6C3F1 mice, B16 melanoma ip, median survival T/C. The experiment can be described thus: NCI In Vivo Anticancer Drug Screen. Data for tumor model B16 Melanoma (intraperitoneal) in B6C3F1 mice. The conditions noted are these: endpoint: median survival time, schedule: Q01DX009 (ip), higher = longer survival. The method, then:
The antitumor activity of compounds was measured in mice bearing transplantable tumors. Survival or tumor size were measured and the results are expressed as the measurement made in the treated group (T) divided by the measurement made in the vehicle treated control group (C). The tumor model used in this assay is B16 Melanoma (intraperitoneal) in B6C3F1 mice

[1] abbreviates: dose: 25.0 mg/kg/injection, vehicle: distilled water + Tween-80.
Setting [2] is: dose: 50.0 mg/kg/injection, vehicle: distilled water + Tween-80.
Setting [3] is: dose: 100.0 mg/kg/injection, vehicle: distilled water + Tween-80.
Where [4] appears, read: dose: 400.0 mg/kg/injection, vehicle: saline.

Turning to `CC(=O)CC(c1ccccc1)c1c(O)c2ccccc2oc1=O` (stereo unspecified), the T/C was 95 % of control (dose: 0.05 mg/kg/injection, vehicle: Klucel (hydroxypropylcellulose) (HPC)); 121 % of control and 106 % of control (dose: 0.05 mg/kg/injection, vehicle: saline with Tween-80); 104 % of control (dose: 0.1 mg/kg/injection, vehicle: Klucel (hydroxypropylcellulose) (HPC)); 91 % of control (dose: 0.1 mg/kg/injection, vehicle: saline with Tween-80); 93 % of control (dose: 0.2 mg/kg/injection, vehicle: Klucel (hydroxypropylcellulose) (HPC)); 124 % of control and 87 % of control (dose: 0.2 mg/kg/injection, vehicle: saline with Tween-80). Also, the T/C by setting is: (dose: 0.4 mg/kg/injection, vehicle: Klucel (hydroxypropylcellulose) (HPC)) 108 % of control; (dose: 0.4 mg/kg/injection, vehicle: saline with Tween-80) 111 % of control; (dose: 0.8 mg/kg/injection, vehicle: Klucel (hydroxypropylcellulose) (HPC)) 98 % of control; (dose: 0.8 mg/kg/injection, vehicle: saline with Tween-80) 103 % of control.

Consider `CC[n+]1c(-c2ccccc2)c2cc(N)ccc2c2ccc(N)cc21`, for which the T/C by setting is: (dose: 0.75 mg/kg/injection, vehicle: water) 97 % of control; (dose: 1.5 mg/kg/injection, vehicle: water) 104 % of control; (dose: 3.0 mg/kg/injection, vehicle: water) 117 % of control and 97 % of control; (dose: 6.0 mg/kg/injection, vehicle: water) 118 % of control; (dose: 12.0 mg/kg/injection, vehicle: water) 154 % of control.

With `CN(C)CCN1C(=O)c2cccc3cc([N+](=O)[O-])cc(c23)C1=O`, the T/C reads like this: (dose: 0.37 mg/kg/injection, vehicle: saline with Tween-80) 105 % of control; (dose: 0.75 mg/kg/injection, vehicle: saline with Tween-80) 107 % of control; (dose: 1.5 mg/kg/injection, vehicle: saline with Tween-80) 112 % of control; (dose: 1.56 mg/kg/injection, vehicle: saline with Tween-80) 117 % of control; (dose: 3.0 mg/kg/injection, vehicle: saline with Tween-80) 102 % of control; (dose: 12.0 mg/kg/injection, vehicle: saline with Tween-80) 88 % of control.

Regarding `CNC(=S)C#N`, the T/C reads like this: (dose: 12.5 mg/kg/injection, vehicle: saline + Tween-80 + alcohol) 119 % of control; (dose: 25.0 mg/kg/injection, vehicle: saline + Tween-80 + alcohol) 86 % of control.

In the case of `Nc1cc(Cl)c2[nH]cnc2n1`, the T/C by setting is: (dose: 6.25 mg/kg/injection, vehicle: water) 102 % of control; (dose: 12.5 mg/kg/injection, vehicle: distilled water + Tween-80) 95 % of control; (dose: 12.5 mg/kg/injection, vehicle: water) 106 % of control; under setting [1], 88 % of control; (dose: 25.0 mg/kg/injection, vehicle: water) 110 % of control; under setting [2], 99 % of control. Moreover, the T/C reads like this: (dose: 50.0 mg/kg/injection, vehicle: water) 98 % of control; under setting [3], 96 % of control; (dose: 100.0 mg/kg/injection, vehicle: water) 100 % of control; (dose: 200.0 mg/kg/injection, vehicle: water) 100 % of control.

For `COc1cc(-c2ccc(Nc3ccccc3C(=O)O)c(OC)c2)ccc1Nc1ccccc1C(=O)O`, the T/C (dose: 100.0 mg/kg/injection, vehicle: suspension in saline) is 94 % of control; the T/C (dose: 200.0 mg/kg/injection, vehicle: suspension in saline) is 99 % of control; the T/C (dose: 400.0 mg/kg/injection, vehicle: suspension in saline) was 98 % of control.

On to `Cc1nc(C(Cl)(Cl)Cl)[nH]c(=O)c1SCCO`, for which the T/C (dose: 25.0 mg/kg/injection, vehicle: distilled water + alcohol) is 111 % of control; the T/C (dose: 50.0 mg/kg/injection, vehicle: distilled water + alcohol) is 107 % of control; the T/C (dose: 100.0 mg/kg/injection, vehicle: distilled water + alcohol) is 102 % of control; the T/C (dose: 200.0 mg/kg/injection, vehicle: distilled water + alcohol) was 106 % of control; the T/C (dose: 400.0 mg/kg/injection, vehicle: distilled water + alcohol) was 119 % of control.

`COC1(OC)C2C=CC1CC2`: the T/C is 108 % of control and 98 % of control (dose: 12.5 mg/kg/injection, vehicle: saline with Tween-80); 101 % of control (dose: 25.0 mg/kg/injection, vehicle: saline with Tween-80); 113 % of control and 102 % of control (dose: 50.0 mg/kg/injection, vehicle: saline with Tween-80); 114 % of control and 100 % of control (dose: 100.0 mg/kg/injection, vehicle: saline with Tween-80); 100 % of control and 102 % of control (dose: 200.0 mg/kg/injection, vehicle: saline with Tween-80); 98 % of control (dose: 400.0 mg/kg/injection, vehicle: saline with Tween-80).

On to `C=C1C(=O)O[C@@H]2C[C@@H](C)[C@@H]3C=CC(=O)[C@@]3(C)[C@@H](OC(=O)CC(=O)O[C@H]3[C@@H]4C(=C)C(=O)O[C@@H]4C[C@@H](C)[C@@H]4C=CC(=O)[C@]43C)[C@H]12`, for which the T/C runs as follows: (dose: 0.25 mg/kg/injection, vehicle: saline with Tween-80) 88 % of control; (dose: 0.5 mg/kg/injection, vehicle: saline with Tween-80) 96 % of control; (dose: 1.0 mg/kg/injection, vehicle: saline with Tween-80) 102 % of control; (dose: 2.0 mg/kg/injection, vehicle: saline with Tween-80) 110 % of control; (dose: 4.0 mg/kg/injection, vehicle: saline with Tween-80) 116 % of control.

Take `NC(N)=NCCCC(N)C(=O)NCC(=O)NCC(=O)O` (stereo unspecified) (HELM PEPTIDE1{[N=C(N)NCCCC(N)C(=O)[*:2]].G.G}$$$$V2.0): the T/C was 107 % of control (dose: 100.0 mg/kg/injection, vehicle: saline); 102 % of control (dose: 200.0 mg/kg/injection, vehicle: saline); 111 % of control under setting [4].

With `S=c1c2[nH]cnc2ncn1CCSC1=NC=NC2=NC=NC21` (stereo unspecified), the T/C is 98 % of control (dose: 12.5 mg/kg/injection, vehicle: saline); 104 % of control (dose: 25.0 mg/kg/injection, vehicle: saline); 92 % of control (dose: 50.0 mg/kg/injection, vehicle: saline); 89 % of control under setting [4].

`COC1CC2C=C(C)/C=C/C=C/C(=O)NC(c3ccccc3)C/C=C/CCC(O)CC(=O)C2=C1O` (stereo unspecified): the T/C reads like this: (dose: 1.5 mg/kg/injection, vehicle: Klucel (hydroxypropylcellulose) (HPC)) 108 % of control; (dose: 3.0 mg/kg/injection, vehicle: Klucel (hydroxypropylcellulose) (HPC)) 110 % of control and 119 % of control and 123 % of control; (dose: 3.13 mg/kg/injection, vehicle: Klucel (hydroxypropylcellulose) (HPC)) 104 % of control; (dose: 6.25 mg/kg/injection, vehicle: Klucel (hydroxypropylcellulose) (HPC)) 109 % of control.

For `CNC(=O)OCc1c(COC(=O)NC)c(-c2ccc(Cl)c(Cl)c2)n2c1Cc1ccccc1C2`, the T/C is, setting by setting: under setting [1], 165 % of control; under setting [2], 194 % of control and 203 % of control; under setting [3], 92 % of control.
